Earlier results on three molecules are cited in patent US20050187278A1, “Treatment or prevention of vascular disorders with Cox-2 inhibitors in combination with cyclic AMP-specific phosphodiesterase inhibitors” (Pharmacia Corporation, priority 2003, published 2005).

In data set [1] the test system is PDE4.
Data set [2] relates to PDE3. To be noted: first of two values given 'respectively' for PDE3 and 4.
Data set [3] concerns PDE4. To be noted: second of two values given 'respectively' for PDE3 and 4.

SMILES strings stand for the structures.

On to `COc1ccc([C@@H]2CNC(=O)C2)cc1OC1CCCC1` [Compound C6, (4R)-4-[3-(Cyclopentyloxy)-4-methoxyphenyl]pyrrolidin-2-one], for which the “fold more potent than the S-(+) enantiomer” value in data set [1] (PDE4 inhibitor rolipram, R-(-) versus S-(+) enantiomer) is “rolipram; 2-10-fold”.

By IC50 is commonly meant the midpoint of a concentration-inhibition curve. Consider `COc1cc(-c2ccc(=O)[nH]n2)ccc1OC(F)F` [Compound C8, 6-[4-(Difluoromethoxy)-3-methoxyphenyl]-3(2H)-pyridazinone], for which the half-inhibitory concentration (IC50) in data set [2] is 500 nM; in data set [3] it was 800 nM.

`COc1ccc([C@H]2CNC(=O)C2)cc1OC1CCCC1` [Compound C7, (4S)-4-[3-(Cyclopentyloxy)-4-methoxyphenyl]pyrrolidin-2-one]: in data set [1] (in words), the “activity relative to the other enantiomer of the PDE4 inhibitor rolipram” value is “Less active”.
